# Source: patent publication US20060228384A1, “Control of biofilm with a biofilm inhibitor” (Sequoia Sciences, Inc., priority 2005, published 2006)
# Legend:
# [1] = system: Propionibacterium acnes; settings: each compound alone; cited from earlier work
# [2] = system: biofilm; experiment: Biofilm Inhibition Assay (compound library screening and analogs, methods as in Example 1); format: cell-based; settings: tested as mentioned in Example 1
# Text: As is evident from the Biofilm Inhibiton Assay results presented in Table 1, one compound from Hit 39, SF382 confirmed biofilm inhibition after purification. […] Thus, the percentage of bacteria attached (within the biofilm) versus free-floating compared to untreated (negative) control has shifted toward free-floating upon addition of the treatment. Compound SF382 was particularly active, reducing the formation of biofilm by 50% compared to negative control. Compound SF382 is represented by structure (I).
# (§1) In vitro biofilm inhibition was evaluated using a high-throughput method. This method uses standard pre-sterilized 96-well polystyrene microtiter plates. Each well was filled to a final volume of 200 μl. Initially, a concentrated compound solution is transferred into each well, except those which are used as controls, to achieve an appropriate testing concentration, typically 10 μg/ml. 150 μl of sterile media was then added, followed by 50 μl of bacterial inoculum. The plates were then placed on a shaker for 24 hours.
# After the allotted growth time, the samples were removed from the shaker, rinsed and stained. The rinse involves first draining the wells, filling each well with PBS, and draining each well again. The rinse removes suspended cells from the system. […] The plate was then immediately analyzed with a microtiter plate reader. The samples and controls were analyzed in triplicate. […]
# [3] = system: methicillin-resistant Staphylococcus aureus ATCC 33591; experiment: Antibacterial effect, NCCLS procedures (Example 3); format: cell-based; settings: ATCC33591, studied at 32 μg/mL, read-out: MIC (minimal inhibitory concentration)
# Procedure: (§2) Using the appropriate NCCLS procedures, the antibacterial effect of palmitoleic acid on two strains of methicillin-resistant Staphylococcus aureus (ATCC 33591 and 78-13607A) was studied at 32 μg/mL.
# [4] = system: methicillin-resistant Staphylococcus aureus 78-13607A; experiment: Antibacterial effect, NCCLS procedures (Example 3); format: cell-based; settings: studied at 32 μg/mL, read-out: MIC (minimal inhibitory concentration)
# Procedure: as §2
# [5] = system: clinical strains of Staphylococcus aureus; settings: 100 ug/ml; cited from earlier work
# [6] = system: Streptococcus mutans 25175; experiment: Biofilm growth inhibition in polycarbonate tubes (Example 8); format: cell-based; settings: 80 μg/mL
# [7] = system: Pseudomonas aeruginosa PA01; experiment: In vitro biofilm inhibition, 96-well plate, crystal violet (Example 1); format: cell-based; settings: 10 μg/mL, 24 hours
# Procedure: as §1
# (§3) After the allotted growth time, the samples were removed from the shaker, rinsed and stained. The rinse involves first draining the wells, filling each well with PBS, and draining each well again. The rinse removes suspended cells from the system. The biofilm was then stained with crystal violet for 20 minutes. The wells were each rinsed 4 times to remove any excess stain from the system and then eluted with 250 μl of ethanol. The elution step improves the detection of the stain during the analyses. The plate was then immediately analyzed with a microtiter plate reader. The samples and controls were analyzed in triplicate. Each plate contains negative and positive controls. The test samples were compared to the positive and negative controls to detect any reduction in the total amount of biofilm.
# [8] = system: Staphylococcus epidermidis ATCC 29641; experiment: as above; format: cell-based; settings: ATCC29641, 10 μg/mL, 24 hours
# Procedure: as §1, §3
# [9] = system: Gram-positive bacteria; settings: cited from earlier work
# [10] = system: Escherichia coli UTI89; experiment: Biofilm inhibition dose response, clinical strain (Example 4); format: cell-based; settings: LB media, compared to controls
# Procedure: (§4) Biofilm inhibition experiments were conducted using an assay adapted from the reported protocol described in Pratt and Kolter, 1998, Molecular Microbiology, 30: 285-293; Li et al., 2001, J. Bacteriol., 183: 897-908. E. coli JM109 was grown in LB with or without 0.2% glucose in 96 well plates at 37° C. for two days without shaking. To quantify the biofilm mass, the suspension culture was poured out and the biofilm was washed three times with water. The biofilm was stained with 0.1% crystal violet for 20 minutes. The plates were then washed three times with water. OD reading at 540 nm was measured to quantify the biofilm mass at the bottom of the wells. Then 95% ethanol was added to dissolve the dye at the bottom and on the wall and the OD reading at 540 nm was measured to quantify the total biofilm mass. To study the overall effect of palmitoleic acid (3.6 mg/mL in 100% ethanol as stock solution), it was added with the inoculation and a time course of biofilm mass was measured. To study if the compound can cause biofilm removal, it was added one day after inoculation. Appropriate amounts of 100% ethanol were added to each sample to eliminate the effect of solvent. Four plates were prepared for each study to give a time course. Each condition had 3-4 replicates on each plate.
# Dose response experiments were conducted on palmitoleic acid as described in Example 2 at 4, 8, 16, and 32 ug/mL with E. coli UT189 in LB media.
# [11] = system: Escherichia coli JM109; experiment: Biofilm formation and growth of wild-type E. coli JM109 (Example 2); format: cell-based; settings: compared to controls
# Procedure: as §4
# [12] = system: human hepatocellular carcinoma cells (HepG2); experiment: In vitro cytotoxicity assessment (Example 7); format: cell-based; settings: 30 or 60 μM, fluorometric detection of mitochondrial activity
# Procedure: Palmitoleic acid was tested to assess its cytotoxicity in human hepatocellular carcinoma cells (HepG2). Palmitoleic acid was tested at two concentrations of 30 and 60 μM in HepG2 cells in triplicate. Gross cytotoxicity was assayed by fluorometric detection in response to mitochondrial activity according to Nociari M M, et al. (1998) J. Immunol. Met. 213:157. Chlorpromazine was used as a positive control.
# [13] = system: Pseudomonas aeruginosa strain PAO1; experiment: Rotating disk reactor biofilm with tobramycin, CFU enumeration (Example 5); format: cell-based; settings: palmitoleic acid approx. 100 μg/ml 24 h then tobramycin 100 μg/ml 2 h; combined treatment compared to tobramycin alone
# Procedure: Biofilm formation of P. aeruginosa was evaluated using a standardized biofilm method with a rotating disk reactor (RDR). This method provides a model resembling the formation of biofilms in cystic fibrosis patients. The rotating disk reactor consists of a one-liter glass beaker fitted with a drain spout. The bottom of the vessel contains a magnetically driven rotor with six 1.27 cm diameter coupons constructed from polystyrene. The rotor consists of a star-head magnetic stir bar upon which a disk was affixed to hold the coupons. The vessel with the stir bar was placed on a stir plate and rotated to provide fluid shear. A nutrient solution (AB Trace Medium with 0.3 mM glucose, see Table 3 below for composition) was added through a stopper in the top of the reactor at a flow rate of 5 ml/min. The reactor volume was approximately 180 ml and varied slightly between reactors depending on the placement of the drain spout and the rotational speed of the rotor. At a volume of 180 ml, the residence time of the reactors was 36 minutes. The reactors were operated at room temperature (c.a. 26° C.).
# For each test, two RDRs were operated in parallel with one receiving palmitoleic acid and the other serving as an untreated control. […] The plates were incubated for 24 hours at 37° C. before colony forming units (CFU) were determined.
# [14] = system: Streptococcus sobrinus 6715; experiment: Biofilm growth inhibition in polycarbonate tubes (Example 8); format: cell-based; settings: 80 μg/mL
# [15] = system: Gram-negative bacteria such as Pseudomonas aeruginosa, and Escherichia coli; settings: also P. acnes and several methicillin-resistant S. aureus strains; cited from earlier work
# [16] = system: P. acnes; settings: 125 ug/ml; cited from earlier work
# [17] = In vivo PK study in rats (Example 9); parameters: species or system rat; settings: plasma
# Procedure: Two groups of animals were prepared to evaluate palmitoleic acid. Palmitoleic acid was evaluated for two dose routes consisting of 50 mg/kg (IV) and 100 mg/kg (Oral). Three animals were assigned to the IV route group and two animals were assigned to the oral route group. Prior to dosing, a baseline blood sample was taken from each animal. At time zero, a single bolus dose of palmitoleic acid in 10% Cremophor (BASF) was given to each animal. Blood samples were taken from each animal at 1, 4, 12 and 24 hours post dosing. All blood samples were processed to plasma.
# The plasma samples were extracted by adding internal standard at a concentration of 10 μg/mL to achieve a final concentration of 2 μg/mL when reconstituted. A solution of 80:20 methanol:chloroform was used to cause protein precipitation. The samples were then vortexed and centrifuged. The supernatant was decanted and the solvent was evaporated off. Samples were then analyzed and quantified by LC/MS.
structure (smiles),measurement,setting,value
"Cc1ncc([N+](=O)[O-])n1CCO [metranidazole, reference compound]","growth inhibition, compound alone",[1],neither compound alone could effectively inhibit the growth
CCCCCCCCCCCCCCCC(=O)O [palmitic acid],inhibition of the formation of biofilms,[2],does not inhibit the formation of biofilms
CCCCCC/C=C\CCCCCCCC(=O)O [palmitoleic acid],MIC,[3],> 32 µg/mL
same,MIC,[4],> 32 µg/mL
same,inhibitory effect,[5],no inhibitory effect
same,inhibition at 80 µg/mL,[6],> 75%
same,inhibition at 10 µg/mL,[7],55%
same,inhibition at 10 µg/mL,[8],80%
same,typical minimal inhibitory concentration (MIC) value,[9]; growth of Gram-positive bacteria,10 to 20 µg/mL
same,synergistic effect with mupirocin,[9]; palmitoleic acid and mupirocin against Gram-positive bacteria,no synergistic effect was observed
same,inhibition at 4 µg/mL,[10]; 4 μg/mL,~10%
same,inhibition at 8 µg/mL,[10]; 8 μg/mL,~55%
same,inhibition at 16 µg/mL,[10]; 16 μg/mL,~70%
same,inhibition at 32 µg/mL,[10]; 32 μg/mL,~80%
same,inhibition of total biofilm formation (reduction),"[11]; approximately 20 μM, added with inoculation",about 60%
same,inhibitory effect on growth,[11],no inhibitory effect
same,cytotoxicity,[12],not observed
same,reduction of CFUs,[13],60%
same,inhibition at 80 µg/mL,[14],> 75%
same,growth inhibition,[15],could not inhibit the growth
same,growth inhibition,[16],failed to inhibit the growth
same,"growth inhibition, compound alone",[1],neither compound alone could effectively inhibit the growth
same,AUC,[17]; IV 50 mg/kg single bolus in 10% Cremophor,123 µg/mL/h
same,AUC,[17]; oral 100 mg/kg single dose in 10% Cremophor,219.71 µg/mL/h
